# Source: US5591714A, “Derivatives of A82846” (priority 1994, dated 1997)
# Experiments:
# Enterococcus faecium X66 = test: MIC, standard agar-dilution assay; type: cell-based
# Description: (§1) The formula I compounds have in vitro and in vivo activity against Gram-positive pathogenic bacteria. The MIC's were determined using a standard agar-dilution assays.
# ^b Formerly Streptococcus faecium X66
# [1] = system: six vancomycin-susceptible strains of staphylococci and enterococci; test: Effect of human serum on the MIC, serial dilution assay; type: cell-based; conditions: for MIC determined in absence of added serum: absence (-) of human serum; for ratio of the MIC in the presence of added serum to the MIC in the absence of added serum: indication of the degree of serum binding; for MIC determined in presence of human serum: broth supplemented with human serum to 40%
# From the text: Another important property of the formula I compounds is the low binding of the compounds to serum proteins when compared with other glycopeptide antibiotics. […] The ratio of the MIC measured in the presence of added serum to the MIC measured in the absence of added serum ("ratio") is an indication of the degree of serum binding. […] A ratio that is greater than one, for example about ten, indicates the compound has a high degree of serum binding.
# [2] = system: Enterococcus faecalis 2041; test: MIC, standard agar-dilution assay; type: cell-based
# Description: as §1
# ^c Formerly Streptococcus faecalis 2041
# [3] = system: Klebsiella pneumoniae KAE; test: MIC, standard agar-dilution assay; type: cell-based
# Description: as §1
# Escherichia coli EC14 = test: MIC, standard agar-dilution assay; type: cell-based
# Description: as §1
# [4] = system: Klebsiella pneumoniae X68; test: MIC, standard agar-dilution assay; type: cell-based
# Description: as §1
# Escherichia coli N10 = test: MIC, standard agar-dilution assay; type: cell-based
# Description: as §1
# [5] = system: Staphylococcus aureus NRRL X1.1; test: MIC, standard agar-dilution assay; type: cell-based
# Description: as §1
# [6] = system: Streptococcus pyogenes C203; test: MIC, standard agar-dilution assay; type: cell-based
# Description: as §1
# [7] = system: Klebsiella pneumoniae X26; test: MIC, standard agar-dilution assay; type: cell-based
# Description: as §1
# [8] = system: Staphylococcus epidermidis 222; test: MIC, standard agar-dilution assay; type: cell-based
# Description: as §1
# [9] = system: Staphylococcus aureus X400; test: MIC, standard agar-dilution assay; type: cell-based
# Description: as §1
# Escherichia coli TEM = test: MIC, standard agar-dilution assay; type: cell-based
# Description: as §1
# [10] = system: Staphylococcus aureus V41; test: MIC, standard agar-dilution assay; type: cell-based
# Description: as §1
# [11] = system: Staphylococcus epidermidis EPI270; test: MIC, standard agar-dilution assay; type: cell-based
# Description: as §1
# [12] = system: Haemophilus influenzae 76; test: MIC, standard agar-dilution assay; type: cell-based
# Description: as §1
# [13] = system: Haemophilus influenzae C.L.; test: MIC, standard agar-dilution assay; type: cell-based
# Description: as §1
# [14] = system: vancomycin-susceptible (Vanco^s) E. faecium and E. faecalis; test: Susceptibility of vancomycin-susceptible enterococci, agar-dilution MIC; type: cell-based; conditions: n = 34 strains; end points read after 24-hour incubation
# Description: (§2) End points were read after 24-hour incubation. The ratio was calculated by dividing the mean MIC of the compound against the vancomycin-resistant strains by the mean MIC of the compound against the vancomycin-susceptible strains.
# Staphylococcus aureus = test: In vivo activity, experimentally infected mice (ED50); conditions: Staphylococcus aureus infection; doses administered subcutaneously to mice 1 and 4 hours postinfection
# Streptococcus pneumoniae = test: as above; conditions: Streptococcus pneumoniae infection; doses administered subcutaneously to mice 1 and 4 hours postinfection
# [15] = system: vancomycin-resistant (Vanco^r) E. faecium and E. faecalis; test: Susceptibility of vancomycin-resistant enterococci, agar-dilution MIC; type: cell-based; conditions: for Geometric Mean MIC, Vanco^r Strains: n = 25 strains, end points read after 24-hour incubation
# Description: as §2
# Streptococcus pyogenes = test: In vivo activity, experimentally infected mice (ED50); conditions: Streptococcus pyogenes infection; doses administered subcutaneously to mice 1 and 4 hours postinfection
# [16] = system: Staphylococcus aureus S13E; type: cell-based
# Description: as §1
# [17] = system: Streptococcus pneumoniae Park 1; type: cell-based
# Description: as §1
SMILES,MIC (Enterococcus faecium X66),MIC determined in absence of added serum [1],ratio of the MIC in the presence of added serum to the MIC in the absence of added serum [1],MIC determined in presence of human serum [1],MIC [2],MIC [3] [µg/mL],MIC (Escherichia coli EC14) [µg/mL],MIC [4] [µg/mL],MIC (Escherichia coli N10) [µg/mL],MIC [5],MIC [6],MIC [7] [µg/mL],MIC [8],MIC [9],MIC (Escherichia coli TEM) [µg/mL],MIC [10],MIC [11] [µg/mL],MIC [12] [µg/mL],MIC [13] [µg/mL],"Geometric Mean MIC, Vanco^s Strains [14] [µg/mL]",other results
CCCCCCCCN[C@@]1(C)C[C@H](O[C@H]2[C@H](Oc3c4cc5cc3Oc3ccc(cc3Cl)[C@@H](O[C@H]3C[C@](C)(N)[C@@H](O)[C@H](C)O3)[C@@H]3NC(=O)[C@H](NC(=O)[C@@H]5NC(=O)[C@H](CC(N)=O)NC(=O)[C@H](NC(=O)[C@@H](CC(C)C)NC)[C@H](O)c5ccc(c(Cl)c5)O4)c4ccc(O)c(c4)-c4c(O)cc(O)cc4[C@@H](C(=O)O)NC3=O)O[C@H](CO)[C@@H](O)[C@@H]2O)O[C@@H](C)[C@@H]1O [Compound 38],.25 µg/mL,0.75,0.58,0.43,.25 µg/mL,> 128,> 128,> 128,> 128,.5 µg/mL,.06 µg/mL,> 128,.5 µg/mL,1 µg/mL,> 128,1 µg/mL,1,> 128,> 128,0.73,"ED50 (Staphylococcus aureus): 0.43 mg/kg/2; ED50 (Streptococcus pneumoniae): 0.062 mg/kg/2; Ratio (mean MIC vancomycin-resistant strains / mean MIC vancomycin-susceptible strains) [15]: 2.9; Geometric Mean MIC, Vanco^r Strains [15]: 2.1 µg/mL; ED50 (Streptococcus pyogenes): 0.11 mg/kg/2; MIC [16]: .5 µg/mL; MIC [17]: .25 µg/mL"
CCCCCCCCCCN[C@@]1(C)C[C@H](O[C@H]2[C@H](Oc3c4cc5cc3Oc3ccc(cc3Cl)[C@@H](O[C@H]3C[C@](C)(N)[C@@H](O)[C@H](C)O3)[C@@H]3NC(=O)[C@H](NC(=O)[C@@H]5NC(=O)[C@H](CC(N)=O)NC(=O)[C@H](NC(=O)[C@@H](CC(C)C)NC)[C@H](O)c5ccc(c(Cl)c5)O4)c4ccc(O)c(c4)-c4c(O)cc(O)cc4[C@@H](C(=O)O)NC3=O)O[C@H](CO)[C@@H](O)[C@@H]2O)O[C@@H](C)[C@@H]1O [Compound 42],.06 µg/mL,0.87,0.76,0.66,.5 µg/mL,> 128,> 128,> 128,> 128,.5 µg/mL,.25 µg/mL,> 128,.5 µg/mL,.5 µg/mL,> 128,.5 µg/mL,1,> 128,> 128,0.92,"ED50 (Staphylococcus aureus): 0.67 mg/kg/2; ED50 (Streptococcus pneumoniae): 0.09 mg/kg/2; Ratio (mean MIC vancomycin-resistant strains / mean MIC vancomycin-susceptible strains) [15]: 2.7; Geometric Mean MIC, Vanco^r Strains [15]: 2.5 µg/mL; ED50 (Streptococcus pyogenes): 0.09 mg/kg/2; MIC [16]: 1 µg/mL; MIC [17]: .25 µg/mL"
